From US20230081426A1, “COMPOUNDS AND METHODS FOR KRAS MODULATION AND INDICATIONS THEREFOR” (Plexxikon Inc., priority 2020, published 2023)

Columns and labels:
[1] = molecular target: T1, G12D-mutant human KRAS (amino acid residues 1-188) (Homo sapiens, UniProt P01116, G12D); assay: KRAS Binding Disruption Assay (AlphaScreen; biotinylated KRpep-2d analogue or RAF1-RBD), G12D; conditions: KRAS G12D; geometric mean; read-out: KRAS GMean IC50 (uM) MUTATION: G12D
T1 construct: G12D or G12C-mutant human KRAS (amino acid residues 1-188) with FLAG tag; made in house; host or cells: E. coli
Procedure, shortened: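 Displacement format with mutant KRAS, biotinylated KRpep-2d analogue or RAF1-RBD (5-20 nM each) at pH 7.5 with 5 mM MgCl2.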

[2] = molecular target: T2, G12C-mutant human KRAS (amino acid residues 1-188) (Homo sapiens, UniProt P01116, G12C); assay: KRAS Binding Disruption Assay (AlphaScreen; biotinylated KRpep-2d analogue or RAF1-RBD), G12C; conditions: geometric mean, read-out: KRAS GMean IC50 (uM) MUTATION: G12C
T2 construct: G12D or G12C-mutant human KRAS (amino acid residues 1-188) with FLAG tag; made in house; host or cells: E. coli
Description: Compound binding disrupts the interaction of KRpep-2d or RAF1-RBD with KRAS, leading to a decrease in Alpha signal.
All assay components were prepared in 20 mM HEPES (pH 7.5), 100 mM NaCl, 5 mM MgCl2, 0.01% Tween-20, and 0.01% BSA. Biotinylated analogues of KRpep-2d were custom synthesized. The binding disruption assays were performed using 5-20 nM of mutant KRAS and 5-20 nM of either biotinylated KRpep-2d analogue or RAF1-RBD. 19 μL of KRAS protein and 4 μL of biotinylated KRpep-2d or RAF1-RBD were added to the wells of a 384-well plate containing 1 μL of various concentrations of test compound or DMSO vehicle. 16 wells containing KRAS, biotinylated KRpep-2d or RAF1-RBD, and 5% DMSO served as high controls. 16 wells containing KRAS only and 5% DMSO served as low controls. Binding reactions were incubated for 1 hour at 25° C., then Anti-Flag Acceptor and Streptavidin Donor Alpha beads were added at a final concentration of 10 μg/mL for an additional hour at room temperature. Alpha signal was read out on a Perkin Elmer Envision HTS instrument. The percentage inhibition at individual compound concentrations relative to high and low controls was calculated. The data were analyzed by using nonlinear regression to generate IC50 values.

[3] = molecular target: T3, G12V-mutant human KRAS (amino acid residues 1-188) (Homo sapiens, UniProt P01116, G12V); assay: KRAS Binding Competition Assay (AlphaScreen; biotinylated KRpep-2d analogue), G12V; conditions: geometric mean, read-out: KRAS GMean IC50 (uM) MUTATION: G12V
T3 construct: G12V-mutant human KRAS (amino acid residues 1-188) with FLAG tag was purified from E. coli; made in house; host or cells: E. coli

Row | IC50 [1] [µM] | IC50 [2] [µM] | IC50 [3] [µM] | SMILES
1 | 0.0001 to 10 | 10 to 100 | – | Oc1cc(-c2ccc3c(N4C[C@H]5CC[C@@H](C4)N5)nc(OCCN4CCOCC4)nc3c2F)c2ccccc2c1 [P-0695, 4-(4-((1R,5S)-3,8-diazabicyclo[3.2.1]octan-3-yl)-8-fluoro-2-(2-morpholinoethoxy)quinazolin-7-yl)naphthalen-2-ol]
2 | 0.0001 to 10 | 0.0001 to 10 | – | Fc1cc2c(N3C[C@H]4CC[C@@H](C3)N4)nc(OCC34CCCN3CCC4)nc2c(F)c1-c1c[nH]c2ccc(Cl)c(Cl)c12 [P-0774, 4-((1R,5S)-3,8-diazabicyclo[3.2.1]octan-3-yl)-7-(4,5-dichloro-1H-indol-3-yl)-6,8-difluoro-2-((tetrahydro-1H-pyrrolizin-7a(5H)-yl)methoxy)quinazoline]
3 | 0.0001 to 10 | 0.0001 to 10 | – | Fc1cc2c(N3C[C@H]4CC[C@@H](C3)N4)nc(OCC34CCCN3CCC4)nc2c(F)c1-c1c[nH]c2ccc(F)c(F)c12 [P-0788, 4-((1R,5S)-3,8-diazabicyclo[3.2.1]octan-3-yl)-7-(4,5-difluoro-1H-indol-3-yl)-6,8-difluoro-2-((tetrahydro-1H-pyrrolizin-7a(5H)-yl)methoxy)quinazoline]
4 | 0.0001 to 10 | 10 to 100 | – | Fc1cc2[nH]cc(-c3c(F)cc4c(N5C[C@H]6CC[C@@H](C5)N6)nc(OCC56CCCN5CCC6)nc4c3F)c2cc1F [P-0789, 4-((1R,5S)-3,8-diazabicyclo[3.2.1]octan-3-yl)-7-(5,6-difluoro-1H-indol-3-yl)-6,8-difluoro-2-((tetrahydro-1H-pyrrolizin-7a(5H)-yl)methoxy)quinazoline]
5 | 0.0001 to 10 | 100 to 1000 | – | CNCCNc1nc(N2C[C@H]3CC[C@@H](C2)N3)c2ccc(-c3cc(O)cc4ccccc34)cc2n1 [P-0061, 4-(4-((1R,5S)-3,8-diazabicyclo[3.2.1]octan-3-yl)-2-((2-(methylamino)ethyl)amino)quinazo-lin-7-yl)naphthalen-2-ol]
6 | 0.0001 to 10 | 0.0001 to 10 | – | Cn1cncc1COc1nc(N2C[C@H]3CC[C@@H](C2)N3)c2ccc(-c3cc(O)cc4ccccc34)c(F)c2n1 [P-0786, 4-(4-((1R,5S)-3,8-diazabicyclo[3.2.1]octan-3-yl)-8-fluoro-2-((1-methyl-1H-imidazol-5-yl)methoxy)quinazolin-7-yl)naphthalen-2-ol]
7 | 0.0001 to 10 | 0.0001 to 10 | – | N#CCCC(=O)N1[C@@H]2CC[C@H]1CN(c1nc(OCC34CCCN3CCC4)nc3c(F)c(-c4cc(O)cc5ccccc45)ccc13)C2 [P-0808, 4-((1R,5S)-3-(8-fluoro-7-(3-hydroxynaphthalen-1-yl)-2-((tetrahydro-1H-pyrrolizin-7a(5H)-yl)methoxy)quinazolin-4-yl)-3,8-diazabicyclo[3.2.1]octan-8-yl)-4-oxobutanenitrile]
8 | 0.0001 to 10 | 10 to 100 | – | Oc1cc(-c2ccc3c(N4C[C@H]5CC[C@@H](C4)N5)nc(OCC4(O)CC4)nc3c2F)c2ccccc2c1 [P-0734, 4-(4-((1R,5S)-3,8-diazabicyclo[3.2.1]octan-3-yl)-8-fluoro-2-((1-hydroxycyclopropyl)methoxy)quinazo-lin-7-yl)naphthalen-2-ol]
9 | 0.0001 to 10 | 10 to 100 | – | Fc1cc2c(N3C[C@H]4CC[C@@H](C3)N4)nc(OCC34CCCN3CCC4)nc2c(F)c1-c1c[nH]c2c(F)ccc(F)c12 [P-0746, 4-((1R,5S)-3,8-diazabicyclo[3.2.1]octan-3-yl)-7-(4,7-difluoro-1H-indol-3-yl)-6,8-difluoro-2-((tetrahydro-1H-pyrrolizin-7a(5H)-yl)methoxy)quinazoline]
10 | 0.0001 to 10 | 100 to 1000 | – | Oc1cc(-c2ccc3c(N4C[C@H]5CC[C@@H](C4)N5)nc(NCC4CCOCC4)nc3c2F)c2ccccc2c1 [P-0701, 4-(4-((1R,5S)-3,8-diazabicyclo[3.2.1]octan-3-yl)-8-fluoro-2-(((tetrahydro-2H-pyran-4-yl)methyl)amino)quinazolin-7-yl)naphthalen-2-ol]
11 | 0.0001 to 10 | – | 10 to 100 | CN1CCC[C@H]1COc1nc(N2C[C@H]3CC[C@@H](C2)N3C(=O)CC(N)=O)c2cc(Cl)c(-c3cc(O)cc4ccccc34)c(F)c2n1 [P-0451, 3-((1R,5S)-3-(6-chloro-8-fluoro-7-(3-hydroxynaphthalen-1-yl)-2-(((S)-1-methylpyrrolidin-2-yl)methoxy)quinazolin-4-yl)-3,8-diazabicyclo[3.2.1]octan-8-yl)-3-oxopropanamide]
12 | 0.0001 to 10 | – | 10 to 100 | CN1CCC[C@H]1COc1nc(N2[C@@H]3CC[C@H]2CN(c2nccc(N)n2)C3)c2ccc(-c3cc(O)cc4ccccc34)cc2n1 [P-0270, 4-(4-((1R,5S)-3-(4-aminopyrimidin-2-yl)-3,8-diazabicyclo[3.2.1]octan-8-yl)-2-(((S)-1-methylpyrrolidin-2-yl)methoxy)quinazolin-7-yl)naphthalen-2-ol]
13 | 10 to 100 | – | 10 to 100 | CN1CCC[C@H]1COc1nc(N2[C@@H]3CC[C@H]2CN(C(=O)CC2CCCC2O)C3)c2ccc(-c3cc(O)cc4ccccc34)cc2n1 (stereo partly drawn) [P-0196, 2-(2-hydroxycyclopentyl)-1-((1R,5S)-8-(7-(3-hydroxynaphthalen-1-yl)-2-(((S)-1-methylpyrrolidin-2-yl)methoxy)quinazolin-4-yl)-3,8-diazabicyclo[3.2.1]octan-3-yl)ethan-1-one]

The next lines start with the compound.

Row | SMILES | IC50 [1] [µM] | IC50 [2] [µM] | IC50 [3] [µM]
14 | CCc1c(F)ccc2[nH]cc(-c3c(F)cc4c(N5C[C@H]6CC[C@@H](C5)N6)nc(OCC56CCCN5CCC6)nc4c3F)c12 [P-0710, 4-((1R,5S)-3,8-diazabicyclo[3.2.1]octan-3-yl)-7-(4-ethyl-5-fluoro-1H-indol-3-yl)-6,8-difluoro-2-((tetrahydro-1H-pyrrolizin-7a(5H)-yl)methoxy)quinazoline] | 0.0001 to 10 | 0.0001 to 10 | –
15 | CN1CCC[C@H]1COc1nc(N2C[C@H]3CC[C@@H](C2)N3)c2ccc(-c3cc(=O)[nH]c4ccccc34)c(F)c2n1 [P-0761, 4-(4-((1R,5S)-3,8-diazabicyclo[3.2.1]octan-3-yl)-8-fluoro-2-(((S)-1-methylpyrrolidin-2-yl)methoxy)quinazolin-7-yl)quinolin-2(1H)-one] | 0.0001 to 10 | 100 to 1000 | –
16 | Oc1cc(-c2ccc3c(N4C[C@H]5CC[C@@H](C4)N5)nc(CCNc4ncccn4)nc3c2F)c2ccccc2c1 [P-0769, 4-(4-((1R,5S)-3,8-diazabicyclo[3.2.1]octan-3-yl)-8-fluoro-2-(2-(pyrimidin-2-ylamino)ethyl)quinazolin-7-yl)naphthalen-2-ol] | 0.0001 to 10 | 10 to 100 | –
17 | CN1CCC[C@H]1COc1nc(N2C[C@H]3CC[C@@H](C2)N3)c2cc(F)c(-c3n[nH]c4ccc(F)cc34)c(F)c2n1 [P-0724, 4-((1R,5S)-3,8-diazabicyclo[3.2.1]octan-3-yl)-6,8-difluoro-7-(5-fluoro-1H-indazol-3-yl)-2-(((S)-1-methylpyrrolidin-2-yl)methoxy)quinazoline] | 10 to 100 | 100 to 1000 | –
18 | CN1CCCC12CN(c1nc(N3C[C@H]4CC[C@@H](C3)N4)c3ccc(-c4cc(O)cc5ccccc45)c(F)c3n1)C2 [P-0641, 4-(4-((1R,5S)-3,8-diazabicyclo[3.2.1]octan-3-yl)-8-fluoro-2-(5-methyl-2,5-diazaspiro[3.4]octan-2-yl)quinazolin-7-yl)naphthalen-2-ol] | 0.0001 to 10 | 10 to 100 | –
19 | NS(=O)(=O)N1[C@@H]2CC[C@H]1CN(c1nc(OCC34CCCN3CCC4)nc3c(F)c(-c4cc(O)cc5ccccc45)ccc13)C2 [P-0662, (1R,5S)-3-(8-fluoro-7-(3-hydroxynaphthalen-1-yl)-2-((tetrahydro-1H-pyrrolizin-7a(5H)-yl)methoxy)quinazolin-4-yl)-3,8-diazabicyclo[3.2.1]octane-8-sulfonamide] | 0.0001 to 10 | 0.0001 to 10 | –
20 | Cc1cccc2cccc(-c3ccc4c(N5C[C@H]6CC[C@@H](C5)N6C(=O)CC#N)nc(OCC56CCCN5CCC6)nc4c3F)c12 [P-0813, 3-((1R,5S)-3-(8-fluoro-7-(8-methylnaphthalen-1-yl)-2-((tetrahydro-1H-pyrrolizin-7a(5H)-yl)methoxy)quinazolin-4-yl)-3,8-diazabicyclo[3.2.1]octan-8-yl)-3-oxopropanenitrile] | – | 0.0001 to 10 | –
21 | CN1CCC[C@H]1COc1nc(N2C[C@H]3CC[C@@H](C2)N3C(=O)CC2SC(N)=NC2=O)c2ccc(-c3cc(O)cc4ccccc34)cc2n1 (stereo partly drawn) [P-0370, 2-amino-5-(2-((1R,5S)-3-(7-(3-hydroxynaphthalen-1-yl)-2-(((S)-1-methylpyrrolidin-2-yl)methoxy)quinazolin-4-yl)-3,8-diazabicyclo[3.2.1]octan-8-yl)-2-oxoethyl)thiazol-4(5H)-one] | 0.0001 to 10 | – | 0.0001 to 10
